Test results taken from patent US20240043404A1 (AbbVie Inc., priority 2009, published 2024).

Tested on: RS4;11 cells
Assay: RS4;11 cell viability assay (CellTiter Glo);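 further: acute lymphoblastic leukemia line RS4,11, EC50 derived from percentage of viable cells after treatment relative to untreated controls, cell killing taken as a measure of Bcl-2 inhibition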
Assay type: cell-based, human
Settings: Homo sapiens, RS4-11, 48 h, 50,000 cells per well, 10% human serum, 48 hours; read-out: RS4; 11 EC50 Values
Experimental: The acute lymphoblastic leukemia (ALL) cell line RS4;11 was used as the primary human cell line to assess the cellular activity of Bcl-2 selective agents in vitro and their efficacy in vivo.
Cell cytotoxicity EC50 values were assessed using CellTiter Glo (Promega) according to the manufacturer's recommendations. The EC50 values were determined as a percentage of viable cells following treatment compared to the untreated control cells.

| SMILES | EC50 [nM] |
| --- | --- |
| CN1CCC(F)(COc2ncc(S(=O)(=O)NC(=O)c3ccc(N4CCN(CC5=C(c6ccc(Cl)cc6)CC(C)(C)CC5)CC4)cc3Oc3cnc4[nH]ccc4c3)cc2Cl)CC1 [Example 269, N-({5-chloro-6-[(4-fluoro-1-methylpiperidin-4-yl)methoxy]pyridin-3-yl}sulfonyl)-4-(4-{[2-(4-chlorophenyl)-4,4-dimethylcyclohex-1-en-1-yl]methyl}piperazin-1-yl)-2-(1H-pyrrolo[2,3-b]pyridin-5-yloxy)benzamide] | 7.23 |
| CC1(C)CCC(CN2CCN(c3ccc(C(=O)NS(=O)(=O)c4ccc(N[C@H]5CCN(C6COC6)C5)c([N+](=O)[O-])c4)c(Oc4cnc5[nH]ccc5c4)c3)CC2)=C(c2ccc(Cl)cc2)C1 [Example 212, 4-(4-{[2-(4-chlorophenyl)-4,4-dimethylcyclohex-1-en-1-yl]methyl}piperazin-1-yl)-N-[(3-nitro-4-{[(3S)-1-oxetan-3-ylpyrrolidin-3-yl]amino}phenyl)sulfonyl]-2-(1H-pyrrolo[2,3-b]pyridin-5-yloxy)benzamide] | 12.8 |
| CC1(C)CCC(CN2CCN(c3ccc(C(=O)NS(=O)(=O)c4ccc(OCC5(F)CCOCC5)c(S(=O)(=O)C(F)(F)F)c4)c(Oc4cnc5[nH]ccc5c4)c3)CC2)=C(c2ccc(Cl)cc2)C1 [Example 220, 4-(4-{[2-(4-chlorophenyl)-4,4-dimethylcyclohex-1-en-1-yl]methyl}piperazin-1-yl)-N-({4-[(4-fluorotetrahydro-2H-pyran-4-yl)methoxy]-3-[(trifluoromethyl)sulfonyl]phenyl}sulfonyl)-2-(1H-pyrrolo[2,3-b]pyridin-5-yloxy)benzamide] | > 1000 |
| CC1(C)CCC(CN2CCN(c3ccc(C(=O)NS(=O)(=O)c4cnc(O[C@H]5CC[C@H](N6CCOCC6)CC5)c(Br)c4)c(Oc4cnc5[nH]ccc5c4)c3)CC2)=C(c2ccc(Cl)cc2)C1 [Example 124, Trans-N-({5-bromo-6-[(4-morpholin-4-ylcyclohexyl)oxy]pyridin-3-yl}sulfonyl)-4-(4-{[2-(4-chlorophenyl)-4,4-dimethylcyclohex-1-en-1-yl]methyl}piperazin-1-yl)-2-(1H-pyrrolo[2,3-b]pyridin-5-yloxy)benzamide] | 212 |
| CC1(C)CCC(CN2CCN(c3ccc(C(=O)NS(=O)(=O)c4ccc(N[C@H]5CC[C@H](N(C6CC6)C6CC6)CC5)c([N+](=O)[O-])c4)c(Oc4cnc5[nH]ccc5c4)c3)CC2)=C(c2ccc(Cl)cc2)C1 [Example 100, Trans-4-(4-{[2-(4-chlorophenyl)-4,4-dimethylcyclohex-1-en-1-yl]methyl}piperazin-1-yl)-N-[(4-{[4-(dicyclopropylamino)cyclohexyl]amino}-3-nitrophenyl)sulfonyl]-2-(1H-pyrrolo[2,3-b]pyridin-5-yloxy)benzamide] | 137 |
| CC1(C)CCC(CC2CCN(c3ccc(C(=O)NS(=O)(=O)c4ccc(NCC5CCOCC5)c([N+](=O)[O-])c4)c(Oc4cnc5[nH]ccc5c4)c3)CC2)C(c2ccc(Cl)cc2)C1 (stereo not shown) [Example 296, 4-(4-{[2-(4-chlorophenyl)-4,4-dimethylcyclohexyl]methyl}piperidin-1-yl)-N-({3-nitro-4-[(tetrahydro-2H-pyran-4-ylmethyl)amino]phenyl}sulfonyl)-2-(1H-pyrrolo[2,3-b]pyridin-5-yloxy)benzamide] | 769 |
| CC1(C)CCC(CN2CCN(c3ccc(C(=O)NS(=O)(=O)c4ccc(NC[C@H]5CC[C@H](C#N)CC5)c([N+](=O)[O-])c4)c(Oc4cnc5[nH]ccc5c4)c3)CC2)=C(c2ccc(Cl)cc2)C1 [Example 276, 4-(4-{[2-(4-chlorophenyl)-4,4-dimethylcyclohex-1-en-1-yl]methyl}piperazin-1-yl)-N-[(4-{[(trans-4-cyanocyclohexyl)methyl]amino}-3-nitrophenyl)sulfonyl]-2-(1H-pyrrolo[2,3-b]pyridin-5-yloxy)benzamide] | 3.5 |
| O=C(NS(=O)(=O)c1ccc(NCCCN2CCOCC2)c([N+](=O)[O-])c1)c1ccc(N2CCN(Cc3ccccc3-c3ccc(Cl)cc3)CC2)cc1Oc1ccc2[nH]ccc2c1 [Example 88, 4-{4-[(4′-chloro-1,1′-biphenyl-2-yl)methyl]piperazin-1-yl}-2-(1H-indol-5-yloxy)-N-({4-[(3-morpholin-4-ylpropyl)amino]-3-nitrophenyl}sulfonyl)benzamide] | 447 |
| CC1(C)CCC(CN2CCN(c3ccc(C(=O)NS(=O)(=O)c4ccc(NC[C@@H]5CC[C@@H](O)C5)c([N+](=O)[O-])c4)c(Oc4cnc5[nH]ccc5c4)c3)CC2)=C(c2ccc(Cl)cc2)C1 [Example 156, 4-(4-{[2-(4-chlorophenyl)-4,4-dimethylcyclohex-1-en-1-yl]methyl}piperazin-1-yl)-N-{[4-({[(1R,3R)-3-hydroxycyclopentyl]methyl}amino)-3-nitrophenyl]sulfonyl}-2-(1H-pyrrolo[2,3-b]pyridin-5-yloxy)benzamide] | 8.05 |
| CN1CCC(Nc2ccc(S(=O)(=O)NC(=O)c3ccc(N4CCN(CC5=C(c6ccc(Cl)cc6)CC(C)(C)CC5)CC4)cc3Oc3cccc4[nH]c5ccccc5c34)cc2[N+](=O)[O-])CC1 [Example 7, 2-(9H-carbazol-4-yloxy)-4-(4-{[2-(4-chlorophenyl)-4,4-dimethylcyclohex-1-en-1-yl]methyl}piperazin-1-yl)-N-({4-[(1-methylpiperidin-4-yl)amino]-3-nitrophenyl}sulfonyl)benzamide] | 192 |
| CC1(C)CCC(CN2CCN(c3ccc(C(=O)NS(=O)(=O)c4cnc(O[C@@H]5CCN(CC(F)F)C5)c(Cl)c4)c(Oc4cnc5[nH]ccc5c4)c3)CC2)=C(c2ccc(Cl)cc2)C1 [Example 261, N-[(5-chloro-6-{[(3R)-1-(2,2-difluoroethyl)pyrrolidin-3-yl]oxy}pyridin-3-yl)sulfonyl]-4-(4-{[2-(4-chlorophenyl)-4,4-dimethylcyclohex-1-en-1-yl]methyl}piperazin-1-yl)-2-(1H-pyrrolo[2,3-b]pyridin-5-yloxy)benzamide] | 184 |
| CC1(C)CCC(CN2CCN(c3ccc(C(=O)NS(=O)(=O)c4cnc(OC[C@@H]5CCN(C(CF)CF)C5)c(Cl)c4)c(Oc4cnc5[nH]ccc5c4)c3)CC2)=C(c2ccc(Cl)cc2)C1 [Example 280, N-[(5-chloro-6-{[(3R)-1-(1,3-difluoropropan-2-yl)pyrrolidin-3-yl]methoxy}pyridin-3-yl)sulfonyl]-4-(4-{[2-(4-chlorophenyl)-4,4-dimethylcyclohex-1-en-1-yl]methyl}piperazin-1-yl)-2-(1H-pyrrolo[2,3-b]pyridin-5-yloxy)benzamide] | 459 |
| O=C(NS(=O)(=O)c1ccc(NCC2CCOCC2)c([N+](=O)[O-])c1)c1ccc(N2CCC(F)(Cc3ccccc3-c3ccc(Cl)cc3)CC2)cc1Oc1cnc2[nH]ccc2c1 [Example 271, 4-{4-[(4′-chlorobiphenyl-2-yl)methyl]-4-fluoropiperidin-1-yl}-N-({3-nitro-4-[(tetrahydro-2H-pyran-4-ylmethyl)amino]phenyl}sulfonyl)-2-(1H-pyrrolo[2,3-b]pyridin-5-yloxy)benzamide] | 437 |
